According to patent publication US12599672B2, “KRAS proteolysis targeting chimeras” (PAQ Therapeutics Inc., priority 2023, dated 2026):

Assays:
Type in all cases: cell-based
KRAS G12V = target: T1, KRAS G12V (Homo sapiens, UniProt P01116, G12V); assay: KRAS G12V HiBit assay; settings: SW620-KRAS (G12V)-HiBit-KI cells, compound treatment for 24 hours
T1 construct: SW620-KRAS (G12V)-HiBit-KI cell (Pharmaron); host or cells: SW620-KRAS (G12V)-HiBit-KI cells (HiBiT knock-in at the endogenous KRAS locus)
T1 sequence (P01116 1-188 isoform P01116-2 G12V): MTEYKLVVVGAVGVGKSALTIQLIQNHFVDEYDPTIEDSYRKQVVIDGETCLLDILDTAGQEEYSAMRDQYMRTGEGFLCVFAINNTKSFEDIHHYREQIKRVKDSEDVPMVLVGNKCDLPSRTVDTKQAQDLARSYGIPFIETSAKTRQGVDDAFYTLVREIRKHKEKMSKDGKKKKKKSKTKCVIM
Procedure, shortened: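 HiBiT-tagged KRAS G12V cells treated 24 h with compound in a 3-fold, 10-point series (0.3 mM DMSO stock); lytic HiBiT reagent with LgBiT added after 15 min room-temperature equilibration. Degradation calculated against 0.1% DMSO high control.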

KRAS = target: T2, KRAS (Homo sapiens, UniProt P01116); assay: KRASamp MSD assay; settings: KE39 (KRAS amplified) cells, treated with test compounds for 24 hr, MSD readout of KRAS degradation
T2 construct: endogenous in cells; host or cells: KE39 (KRAS amplified) cells
T2 sequence (P01116 1-188 isoform P01116-2): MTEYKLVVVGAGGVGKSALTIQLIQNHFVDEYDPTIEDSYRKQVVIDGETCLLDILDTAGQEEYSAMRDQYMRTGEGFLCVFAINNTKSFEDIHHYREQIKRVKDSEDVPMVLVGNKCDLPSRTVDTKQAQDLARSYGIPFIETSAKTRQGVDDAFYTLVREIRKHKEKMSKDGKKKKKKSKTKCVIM
Procedure, shortened: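 KRAS-amplified KE39 cells treated with compound for 24 hr, then lysed in RIPA buffer with protease/phosphatase inhibitors. KRAS protein measured by MSD sandwich immunoassay against a recombinant WT KRAS standard curve; DC50 derived from curve fitting of degradation.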

KRAS G12D = target: T3, KRAS G12D (Homo sapiens, UniProt P01116, G12D); assay: KRAS G12D HiBit assay; settings: AsPc-1-KRAS (G12D)-HiBit-KI cell, compound treatment for 24 hours, absolute DC50
T3 construct: AsPc-1-KRAS (G12D)-HiBit-KI cell (Pharmaron); host or cells: AsPc-1-KRAS (G12D)-HiBit-KI cells (HiBiT knock-in at the endogenous KRAS locus)
T3 sequence (P01116 1-188 isoform P01116-2 G12D): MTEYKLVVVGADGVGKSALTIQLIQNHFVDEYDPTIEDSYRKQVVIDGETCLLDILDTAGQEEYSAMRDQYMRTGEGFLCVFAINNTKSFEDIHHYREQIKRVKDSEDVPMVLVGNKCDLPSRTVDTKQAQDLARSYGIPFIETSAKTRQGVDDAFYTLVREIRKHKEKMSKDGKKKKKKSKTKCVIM
Procedure, shortened: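 Cells were treated for 24 h with compounds in a 3-fold, 10-point dilution series from a 0.3 mM DMSO stock, then equilibrated 15 min at room temperature. KRAS G12D HiBiT levels were read by luminescence after lytic Nano-Glo HiBiT reagent with LgBiT; inhibition calculated relative to 0.1% DMSO high control.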

[1] = numeric bounds given in place of class symbols

Structure (SMILES): CCc1c(F)ccc2cc(O)cc(-c3ncc4c(N5CCCCC5)nc(OC[C@@]56CCCN5[C@H](CN5CCC(CN7CCC(c8ccc9c(c8)n(C)c(=O)n9C8CCC(=O)NC8=O)CC7)CC5)CC6)nc4c3F)c12 (stereo partly drawn) [Compound 379, 3-(5-(1-((1-(((3S,7aS)-7a-(((7-(8-ethyl-7-fluoro-3-hydroxynaphthalen-1-yl)-8-fluoro-4-(piperidin-1-yl)pyrido[4,3-d]pyrimidin-2-yl)oxy)methyl)hexahydro-1H-pyrrolizin-3-yl)methyl)piperidin-4-yl)methyl)piperidin-4-yl)-3-methyl-2-oxo-2,3-dihydro-1H-benzo[d]imidazol-1-yl)piperidine-2,6-dione]
- DC50 (KRAS G12V; class symbols): < 10 nM
- DC50 (KRAS): < 1 nM
- DC50 (KRAS G12D; class symbols): < 100 nM

Structure (SMILES): CCc1c(F)ccc2cc(O)cc(-c3ncc4c(N5CCCC(F)(F)C5)nc(OC[C@@]56CCCN5[C@H](COC(=O)N5CC7(CC(N8CCC(c9ccc%10c(c9)n(C)c(=O)n%10C9CCC(=O)NC9=O)CC8)C7)C5)CC6)nc4c3F)c12 (stereo partly drawn) [Compound 469, ((3S,7aS)-7a-(((4-(3,3-difluoropiperidin-1-yl)-7-(8-ethyl-7-fluoro-3-hydroxynaphthalen-1-yl)-8-fluoropyrido[4,3-d]pyrimidin-2-yl)oxy)methyl)hexahydro-1H-pyrrolizin-3-yl)methyl 6-(4-(1-(2,6-dioxopiperidin-3-yl)-3-methyl-2-oxo-2,3-dihydro-1H-benzo[d]imidazol-5-yl)piperidin-1-yl)-2-azaspiro[3.3]heptane-2-carboxylate]
- DC50 (KRAS G12V; class symbols): < 10 nM
- DC50 (KRAS): < 1 nM
- DC50 (KRAS G12D; class symbols): < 100 nM

Structure (SMILES): CCc1c(F)ccc2cc(O)cc(-c3ncc4c(N5CCC[C@@](C)(O)C5)nc(OC[C@@]56CCCN5[C@H](CN5CCC(CN7CCC(c8ccc9c(c8)n(C)c(=O)n9C8CCC(=O)NC8=O)CC7)CC5)CC6)nc4c3F)c12 (stereo partly drawn) [Compound 402, 3-(5-(1-((1-(((35,7aS)-7a-(((7-(8-Ethyl-7-fluoro-3-hydroxynaphthalen-1-yl)-8-fluoro-4-((R)-3-hydroxy-3-methylpiperidin-1-yl)pyrido[4,3-d]pyrimidin-2-yl)oxy)methyl)hexahydro-1H-pyrrolizin-3-yl)methyl)piperidin-4-yl)methyl)piperidin-4-yl)-3-methyl-2-oxo-2,3-dihydro-1H-benzo[d]imidazol-1-yl) piperidine-2,6-dione]
- DC50 (KRAS G12V; class symbols): 10 to 100 nM
- DC50 (KRAS): 1 to 10 nM
- DC50 (KRAS G12D; class symbols): < 100 nM

Structure (SMILES): CCc1c(F)ccc2cc(O)cc(-c3ncc4c(N5CCC[C@@](C)(O)C5)nc(OC[C@@]56CCCN5[C@H](COC(=O)N5CCC(OCCC#Cc7ccc8c(c7)n(C)c(=O)n8C7CCC(=O)NC7=O)CC5)CC6)nc4c3F)c12 (stereo partly drawn) [Compound 371, ((3S,7aS)-7a-(((7-(8-ethyl-7-fluoro-3-hydroxynaphthalen-1-yl)-8-fluoro-4-((R)-3-hydroxy-3-methylpiperidin-1-yl)pyrido[4,3-d]pyrimidin-2-yl)oxy)methyl)hexahydro-1H-pyrrolizin-3-yl)methyl 4-((4-(1-(2,6-dioxopiperidin-3-yl)-3-methyl-2-oxo-2,3-dihydro-1H-benzo[d]imidazol-5-yl)but-3-yn-1-yl)oxy)piperidine-1-carboxylate]
- DC50 (KRAS G12V; class symbols): < 10 nM
- DC50 (KRAS): 1 to 10 nM
- DC50 (KRAS G12D; class symbols): < 100 nM

Structure (SMILES): CCc1c(F)ccc2cc(O)cc(-c3ncc4c(N5CCC[C@@](C)(O)C5)nc(OC[C@@]56CCCN5[C@H](COC(=O)N5CC(CN7CCC(c8ccc9c(c8)n(C)c(=O)n9C8CCC(=O)NC8=O)CC7)C5)CC6)nc4c3F)c12 (stereo partly drawn) [Compound 394, ((3S,7aS)-7a-(((7-(8-ethyl-7-fluoro-3-hydroxynaphthalen-1-yl)-8-fluoro-4-((R)-3-hydroxy-3-methylpiperidin-1-yl)pyrido[4,3-d]pyrimidin-2-yl)oxy)methyl)hexahydro-1H-pyrrolizin-3-yl)methyl 3-((4-(1-(2,6-dioxopiperidin-3-yl)-3-methyl-2-oxo-2,3-dihydro-1H-benzo[d]imidazol-5-yl)piperidin-1-yl)methyl)azetidine-1-carboxylate]
- DC50 (KRAS G12V; class symbols): < 10 nM
- DC50 (KRAS): 1 to 10 nM
- DC50 (KRAS G12D; [1]): > 100 nM

Structure (SMILES): CCc1c(F)ccc2cc(O)cc(-c3ncc4c(N5CCC[C@@](C)(O)C5)nc(OC[C@]56CCCN5[C@H](COC(=O)NC5CCCN(c7cccc8c7n(C)c(=O)n8C7CCC(=O)NC7=O)C5)CC6)nc4c3F)c12 (stereo partly drawn) [Compound 312, ((3S,7aR)-7a-(((7-(8-ethyl-7-fluoro-3-hydroxynaphthalen-1-yl)-8-fluoro-4-((R)-3-hydroxy-3-methylpiperidin-1-yl)pyrido[4,3-d]pyrimidin-2-yl)oxy)methyl)hexahydro-1H-pyrrolizin-3-yl)methyl (1-(1-(2,6-dioxopiperidin-3-yl)-3-methyl-2-oxo-2,3-dihydro-1H-benzo[d]imidazol-4-yl)piperidin-3-yl)carbamate]
- DC50 (KRAS G12V; class symbols): 10 to 100 nM
- DC50 (KRAS): ≥ 10 nM
- DC50 (KRAS G12D; [1]): > 100 nM

Structure (SMILES): CCc1c(F)ccc2cc(O)cc(-c3ncc4c(N5CCC[C@@](C)(O)C5)nc(OC[C@@]56CCCN5[C@H](COC(=O)N5CCC(CN7CCC(c8ccc9c(c8)n(C)c(=O)n9C8CCC(=O)NC8=O)CC7)C(F)(F)C5)CC6)nc4c3F)c12 (stereo partly drawn) [Compound 397, ((3S,7aS)-7a-(((7-(8-ethyl-7-fluoro-3-hydroxynaphthalen-1-yl)-8-fluoro-4-((R)-3-hydroxy-3-methylpiperidin-1-yl)pyrido[4,3-d]pyrimidin-2-yl)oxy)methyl)hexahydro-1H-pyrrolizin-3-yl)methyl 4-((4-(1-(2,6-dioxopiperidin-3-yl)-3-methyl-2-oxo-2,3-dihydro-1H-benzo[d]imidazol-5-yl)piperidin-1-yl)methyl)-3,3-difluoropiperidine-1-carboxylate]
- DC50 (KRAS G12V; class symbols): < 10 nM
- DC50 (KRAS): < 1 nM
- DC50 (KRAS G12D; class symbols): < 100 nM

Structure (SMILES): C#Cc1c(F)ccc2cc(O)cc(-c3ncc4c(N5CCC[C@@](C)(O)C5)nc(OC[C@]56CCCN5[C@@H](COC(=O)N5CCC(CN7CCC(c8ccc9c(c8)n(C)c(=O)n9C8CCC(=O)NC8=O)CC7)CC5)CC6)nc4c3F)c12 (stereo partly drawn) [Compound 126, ((3R,7aR)-7a-(((7-(8-Ethynyl-7-fluoro-3-hydroxynaphthalen-1-yl)-8-fluoro-4-((R)-3-hydroxy-3-methylpiperidin-1-yl)pyrido[4,3-d]pyrimidin-2-yl)oxy)methyl)hexahydro-1H-pyrrolizin-3-yl)methyl 4-((4-(1-(2,6-dioxopiperidin-3-yl)-3-methyl-2-oxo-2,3-dihydro-1H-benzo[d]imidazol-5-yl)piperidin-1-yl)methyl) piperidine-1-carboxylate]
- DC50 (KRAS G12V; class symbols): < 10 nM
- DC50 (KRAS): < 1 nM
- DC50 (KRAS G12D; [1]): > 38.3 nM

Structure (SMILES): C#Cc1c(F)ccc2cc(O)cc(-c3ncc4c(N5CCC[C@@](C)(O)C5)nc(OC[C@@]56CCCN5[C@H](COC(=O)N5CCC(OCC#Cc7ccc8c(c7)n(C)c(=O)n8C7CCC(=O)NC7=O)CC5)CC6)nc4c3F)c12 (stereo partly drawn) [Compound 373, ((3S,7aS)-7a-(((7-(8-ethynyl-7-fluoro-3-hydroxynaphthalen-1-yl)-8-fluoro-4-((R)-3-hydroxy-3-methylpiperidin-1-yl)pyrido[4,3-d]pyrimidin-2-yl)oxy)methyl)hexahydro-1H-pyrrolizin-3-yl)methyl 4-((3-(1-(2,6-dioxopiperidin-3-yl)-3-methyl-2-oxo-2,3-dihydro-1H-benzo[d]imidazol-5-yl)prop-2-yn-1-yl)oxy)piperidine-1-carboxylate]
- DC50 (KRAS G12V; class symbols): < 10 nM
- DC50 (KRAS): 1 to 10 nM
- DC50 (KRAS G12D; class symbols): < 100 nM

Structure (SMILES): C#Cc1c(F)ccc2cccc(-c3ncc4c(N5CCC[C@@](C)(O)C5)nc(OC[C@]56CCCN5[C@H](COC(=O)N5CCC(CN7CCC(c8ccc9c(c8)n(C)c(=O)n9C8CCC(=O)NC8=O)CC7)CC5)CC6)nc4c3F)c12 (stereo partly drawn) [Compound 141]
- DC50 (KRAS G12V; numeric bounds): > 79.2 nM
- DC50 (KRAS): < 1 nM
- DC50 (KRAS G12D; [1]): > 100 nM

Structure (SMILES): CCc1c(F)ccc2cc(O)cc(-c3ncc4c(N5CCC[C@@](C)(O)C5)nc(OC[C@@]56CCCN5[C@H](COC(=O)N5CCC7(CCC(CN8CCC(c9ccc%10c(c9)n(C)c(=O)n%10C9CCC(=O)NC9=O)CC8)CC7)C5)CC6)nc4c3F)c12 (stereo partly drawn) [Compound 457, ((3S,7aS)-7a-(((7-(8-ethyl-7-fluoro-3-hydroxynaphthalen-1-yl)-8-fluoro-4-((R)-3-hydroxy-3-methylpiperidin-1-yl)pyrido[4,3-d]pyrimidin-2-yl)oxy)methyl)hexahydro-1H-pyrrolizin-3-yl)methyl 8-((4-(1-(2,6-dioxopiperidin-3-yl)-3-methyl-2-oxo-2,3-dihydro-1H-benzo[d]imidazol-5-yl)piperidin-1-yl)methyl)-2-azaspiro[4.5]decane-2-carboxylate]
- DC50 (KRAS G12V; class symbols): < 10 nM
- DC50 (KRAS): < 1 nM
- DC50 (KRAS G12D; class symbols): < 100 nM

Structure (SMILES): C#Cc1c(F)ccc2cc(O)cc(-c3ncc4c(N5CCC[C@@](C)(O)C5)nc(OCC5(CN6CCC7(CC6)CC(N6CCN(c8cccc9c8n(C)c(=O)n9C8CCC(=O)NC8=O)CC6)C7)CC5)nc4c3F)c12 (stereo partly drawn) [Compound 71]
- DC50 (KRAS G12V; class symbols): < 10 nM
- DC50 (KRAS): < 1 nM
- DC50 (KRAS G12D; class symbols): < 100 nM
